The text below walks through data of patent publication US11407719B2, “Anti-inflammatory agents” (Resverlogix Corp., priority 2009, dated 2022).

In one data set the test system is hIL-6 mRNA. In words: Quantification of hIL-6 mRNA. The format is cell-based, human. More on the design: key: Active: an active compound is one that causes a ≥20% inhibition in IL-6 mRNA at a concentration less than or equal to 10 μM. To be noted: IL-6 mRNA by real-time PCR; differentiated U937 cells, 1 h pretreatment, lipopolysaccharide stimulation 3 h; concentration ≤10 μM. A digest of the protocol:
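U937 cells, differentiated for 3 days, were pretreated with compound for 1 h and then stimulated with E. coli LPS for 3 h at 37 °C. IL-6 mRNA was quantified by one-step qRT-PCR, with Ct normalized to an internal control, and fold induction was expressed relative to control.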

The test system of another data set is VCAM-1 mRNA. In words: Quantification of hVCAM mRNA. The format is cell-based, human. More on the design: key: Active: an active compound is one that causes a ≥20% inhibition in VCAM-1 mRNA at a concentration less than or equal to 10 μM; -1 mRNA at a concentration less than or equal to 10 μM. The conditions noted are these: VCAM-1 mRNA by real-time PCR; HUVECs, 1 h pretreatment, tumor necrosis factor-α stimulation 24 h; concentration ≤10 μM. How it is done: In this example, […] in tissue culture cells was quantitated to measure the transcriptional inhibition of hVCAM when treated with a compound of the invention.
Human umbilical vein endothelial cells (HUVECs) were plated in a 96-well plate (4.0×10^3 cells/well) in 100 μL EGM media and incubated for 24 h prior to the addition of the compound of interest. The cells were pretreated for 1 h with the test compound prior to stimulation with tumor necrosis factor-α. The cells were incubated for an additional 24 h before the cells were harvested. At time of harvest, the spent media was removed from the HUVECs and rinsed in 200 μL PBS. Cell lysis solution (70 μL) was then added the cells in each well and incubated for ˜5-10 min at room temperature, to allow for complete cell lysis and detachment. mRNA was then prepared using the “mRNA Catcher PLUS plate” (Invitrogen), according to the protocol supplied. After the last wash, as much wash buffer as possible was aspirated without allowing the wells to dry. Elution buffer (E3, 70 μL) was then added to each well. mRNA was then eluted by incubating the mRNA Catcher PLUS plate with elution buffer for 5 min at 68° C. and then immediately placing the plate on ice.
The eluted mRNA so isolated was then used in a one-step quantitative real-time PCR reaction, using components of the Ultra Sense Kit together with Applied Biosystems primer-probe mixes. Real-time PCR data was analyzed, normalizing the Ct values for hVCAM to an internal control, prior to determining the fold induction of each unknown sample, relative to the control.

Consider `COc1cc(OC)c2c(=O)[nH]c(-c3cc(C)nc(C)c3)nc2c1` [2-(2,6-Dimethylpyridin-4-yl)-5,7-dimethoxyquinazolin-4(3H)-one], for which the melting point is 291 to 292 °C. In the data set with hIL-6 mRNA, the “Inhibition of IL-6 expression” value is “Active”.

`COCCOc1cc(OC)c2c(=O)[nH]c(-c3cc(C)nc(C)c3)nc2c1` [2-(2,6-Dimethylpyridin-4-yl)-5-methoxy-7-(2-methoxyethoxy)quinazolin-4(3H)-one] yielded a melting point of 228.8 to 230.4 °C. Also, in the data set with hIL-6 mRNA, the “Inhibition of IL-6 expression” value is “Active”.

`Cc1cc(-c2nc3ccc(CN4CCN(C)CC4)cc3c(=O)[nH]2)cc(C)n1` [2-(2,6-Dimethylpyridin-4-yl)-6-((4-methylpiperazin-1-yl)methyl)quinazolin-4(3H)-one] came in with a melting point of 229 to 230 °C. Further, the “Inhibition of IL-6 expression” value in the data set with hIL-6 mRNA is listed as “Active”.

`Cc1cc(-c2nc3cc(OC(C)C)cc(OC(C)C)c3c(=O)[nH]2)cc(C)c1OCCN1CCCC1` [2-(3,5-Dimethyl-4-(2-(pyrrolidin-1-yl)ethoxy)phenyl)-5,7-diisopropoxyquinazolin-4(3H)-one]: the melting point lay in the range of 65 to 68 °C. Besides, the “Inhibition of IL-6 expression” value in the data set with hIL-6 mRNA is given as “Active”.

For `Cc1cc(C)c2c(=O)[nH]c(-c3cc(C)c(OCCN4CCCC4)c(C)c3)nc2c1` [2-(3,5-Dimethyl-4-(2-(pyrrolidin-1-yl)ethoxy)phenyl)-5,7-dimethylquinazolin-4(3H)-one], the melting point fell in the range of 181 to 182 °C. Further, in the data set with hIL-6 mRNA, the “Inhibition of IL-6 expression” value was “Active”.

Compound `COc1cc(OC)c2c(=O)n(CCCN3CCCC3)c(-c3cc(C)c(OCCCN4CCCC4)c(C)c3)nc2c1` [2-(3,5-Dimethyl-4-(3-(pyrrolidin-1-yl)propoxy)phenyl)-5,7-dimethoxy-3-(3-(pyrrolidin-1-yl)propyl)quinazolin-4(3H)-one] came in with a melting point of 109 to 111 °C. Also, the “Inhibition of IL-6 expression” value with hIL-6 mRNA is on record as “Active”.

`COc1cc(OC)c2c(=O)[nH]c(-c3cc(C)c(OCCN4CCC4)c(C)c3)nc2c1` [2-(4-(2-(Azetidin-1-yl)ethoxy)-3,5-dimethylphenyl)-5,7-dimethoxyquinazolin-4(3H)-one] yielded a melting point of 204 to 205 °C. The “Inhibition of IL-6 expression” value in the data set with hIL-6 mRNA is “Active”.

For the compound `COc1cc(OC)c2c(=O)[nH]c(-c3ccc(N4CCC(O)CC4)cc3)nc2n1` [2-(4-(4-Hydroxypiperidin-1-yl)phenyl)-5,7-dimethoxypyrido[2,3-d]pyrimidin-4(3H)-one], the melting point lay within 284 to 286 °C. The “Inhibition of IL-6 expression” value in the data set on hIL-6 mRNA was “Active”.

For the compound `COc1cccc2c(=O)[nH]c(-c3ccc(N4CCN(C(C)C)CC4)cc3)nc12` [2-(4-(4-Isopropylpiperazin-1-yl)phenyl)-8-methoxyquinazolin-4(3H)-one], the “Inhibition of IL-6 expression” value with hIL-6 mRNA is “Active”. Further, the “Inhibition of VCAM-1 expression” value in the data set on VCAM-1 mRNA is “Active”.

With `CCCCN1CCN(c2ccc(-c3nc4cc(OC)cc(OC)c4c(=O)[nH]3)cc2)CC1` [2-(4-(4-butylpiperazin-1-yl)phenyl)-5,7-dimethoxyquinazolin-4(3H)-one], the “Inhibition of IL-6 expression” value in the data set on hIL-6 mRNA is “Active”. In the data set on VCAM-1 mRNA, the “Inhibition of VCAM-1 expression” value was “Active”.

For the compound `COc1cc(OC)c2c(=O)[nH]c(-c3ccc(N4C[C@@H](C)N[C@@H](C)C4)cc3)nc2c1` [2-(4-((3R,5S)-3,5-Dimethylpiperazin-1-yl)phenyl)-5,7-dimethoxyquinazolin-4(3H)-one], the “Inhibition of IL-6 expression” value in the data set on hIL-6 mRNA was “Active”. Besides, the “Inhibition of VCAM-1 expression” value with VCAM-1 mRNA is on record as “Active”.

Turning to `COc1cc(OC)c2c(=O)[nH]c(-c3ccc(N4C[C@@H](C)N(C(C)=O)[C@@H](C)C4)cc3)nc2c1` [2-(4-((3R,5S)-4-Acetyl-3,5-dimethylpiperazin-1-yl)phenyl)-5,7-dimethoxyquinazolin-4(3H)-one], in the data set with hIL-6 mRNA, the “Inhibition of IL-6 expression” value was “Active”. The “Inhibition of VCAM-1 expression” value in the data set with VCAM-1 mRNA is listed as “Active”.

Turning to `CCN1CCN(Cc2ccc(-c3nc4cc(OC)cc(OC)c4c(=O)[nH]3)cc2)CC1` [2-(4-((4-ethylpiperazin-1-yl)methyl)phenyl)-5,7-dimethoxyquinazolin-4(3H)-one], the “Inhibition of IL-6 expression” value in the data set on hIL-6 mRNA is “Active”. For the same compound, the “Inhibition of VCAM-1 expression” value with VCAM-1 mRNA is “Active”.

`COc1cc2nc(-c3ccc(N(C)C)c4ccccc34)[nH]c(=O)c2cc1OC` [2-(4-(dimethylamino)naphthalen-1-yl)-6,7-dimethoxyquinazolin-4(3H)-one]: the “Inhibition of IL-6 expression” value with hIL-6 mRNA is “Active”. In the data set on VCAM-1 mRNA, the “Inhibition of VCAM-1 expression” value is on record as “Active”.

As to `COc1cc(OC)c2c(=O)[nH]c(-c3ccc4[nH]c(CCN5CCCC5)cc4c3)nc2c1` [5,7-Dimethoxy-2-(2-(2-(pyrrolidin-1-yl)ethyl)-1H-indol-5-yl)quinazolin-4(3H)-one], the “Inhibition of IL-6 expression” value in the data set on hIL-6 mRNA is given as “Active”. In addition, in the data set with VCAM-1 mRNA, the “Inhibition of VCAM-1 expression” value is reported as “Active”.

As to `COc1cc(OC)c2c(=O)[nH]c(-c3ccc4[nH]c(CN5CCCC5)cc4c3)nc2c1` [5,7-Dimethoxy-2-(2-(pyrrolidin-1-ylmethyl)-1H-indol-5-yl)quinazolin-4(3H)-one], the “Inhibition of IL-6 expression” value with hIL-6 mRNA is given as “Active”. Besides, the “Inhibition of VCAM-1 expression” value in the data set on VCAM-1 mRNA is on record as “Active”.

In the case of `COc1cccc(-c2nc3cc(OC)cc(OC)c3c(=O)[nH]2)c1` [5,7-Dimethoxy-2-(3-methoxyphenyl)quinazolin-4(3H)-one], the “Inhibition of IL-6 expression” value in the data set on hIL-6 mRNA was “Active”. Besides, in the data set with VCAM-1 mRNA, the “Inhibition of VCAM-1 expression” value is “Active”.

On to `COc1cc(OC)c2c(=O)[nH]c(-c3ccc(N4CCN(C(=O)CC(F)(F)F)CC4)cc3)nc2c1` [5,7-Dimethoxy-2-(4-(4-(3,3,3-trifluoropropanoyl)piperazin-1-yl)phenyl)quinazolin-4(3H)-one], for which, in the data set with hIL-6 mRNA, the “Inhibition of IL-6 expression” value is recorded as “Active”. Further, the “Inhibition of VCAM-1 expression” value in the data set with VCAM-1 mRNA is listed as “Active”.

In the case of `COc1cc(OC)c2c(=O)[nH]c(-c3ccc(N4CCCN(C)CC4)cc3)nc2c1` [5,7-Dimethoxy-2-(4-(4-methyl-1,4-diazepan-1-yl)phenyl)quinazolin-4(3H)-one], the “Inhibition of IL-6 expression” value in the data set on hIL-6 mRNA is “Active”. Besides, the “Inhibition of VCAM-1 expression” value with VCAM-1 mRNA was “Active”.

As to `COc1cc(OC)c2c(=O)[nH]c(-c3ccc(N4CCNCC4)cc3)nc2c1` [5,7-Dimethoxy-2-(4-(piperazin-1-yl)phenyl)quinazolin-4(3H)-one], in the data set with hIL-6 mRNA, the “Inhibition of IL-6 expression” value is “Active”. For the same compound, the “Inhibition of VCAM-1 expression” value in the data set with VCAM-1 mRNA is recorded as “Active”.

Consider `COc1cc(OC)c2c(=O)[nH]c(-c3ccc(Nc4cccnc4)cc3)nc2c1` [5,7-Dimethoxy-2-(4-(pyridin-3-ylamino)phenyl)quinazolin-4(3H)-one], for which, in the data set with hIL-6 mRNA, the “Inhibition of IL-6 expression” value is listed as “Active”. Besides, in the data set on VCAM-1 mRNA, the “Inhibition of VCAM-1 expression” value is “Active”.

In the case of `COc1cc(OC)c2c(=O)[nH]c(-c3cc(C)c(OCCN4CCOCC4)c(C)c3)cc2n1` [7-(3,5-dimethyl-4-(2-morpholinoethoxy)phenyl)-2,4-dimethoxy-1,6-naphthyridin-5(6H)-one], the “Inhibition of IL-6 expression” value with hIL-6 mRNA was “Active”. Further, the “Inhibition of VCAM-1 expression” value with VCAM-1 mRNA is “Active”.

Turning to `COc1cc(OC)c2c(=O)[nH]c(-c3cc(C)c(OC[C@@H]4CCC(=O)N4)c(C)c3)nc2c1` [(S)-2-(3,5-Dimethyl-4-((5-oxopyrrolidin-2-yl)methoxy)phenyl)-5,7-dimethoxyquinazolin-4(3H)-one], in the data set with hIL-6 mRNA, the “Inhibition of IL-6 expression” value is on record as “Active”. For the same compound, in the data set with VCAM-1 mRNA, the “Inhibition of VCAM-1 expression” value is listed as “Active”.

With `CCN(C(C)=O)C1CCN(c2ccc(-c3nc4cc(OC)cc(OC)c4c(=O)[nH]3)cc2)CC1` [N-(1-(4-(5,7-Dimethoxy-4-oxo-3,4-dihydroquinazolin-2-yl)phenyl)piperidin-4-yl)-N-ethylacetamide], in the data set on hIL-6 mRNA, the “Inhibition of IL-6 expression” value is given as “Active”. Further, the “Inhibition of VCAM-1 expression” value in the data set on VCAM-1 mRNA is “Active”.

As for `COc1cc(OC)c2c(=O)[nH]c(-c3ccc(N4CCC(NC(C)=O)CC4)cc3)nc2c1` [N-(1-(4-(5,7-Dimethoxy-4-oxo-3,4-dihydroquinazolin-2-yl)phenyl)piperidin-4-yl)acetamide], the “Inhibition of IL-6 expression” value in the data set on hIL-6 mRNA was “Active”. Moreover, the “Inhibition of VCAM-1 expression” value in the data set on VCAM-1 mRNA is recorded as “Active”.

As to `COc1cc(OC)c2c(=O)[nH]c(-c3ccc(N4CCC(NC(=O)c5ccccc5)CC4)cc3)nc2c1` [N-(1-(4-(5,7-Dimethoxy-4-oxo-3,4-dihydroquinazolin-2-yl)phenyl)piperidin-4-yl)benzamide], the “Inhibition of IL-6 expression” value with hIL-6 mRNA is on record as “Active”. Also, in the data set on VCAM-1 mRNA, the “Inhibition of VCAM-1 expression” value was “Active”.

Take `COc1cc(OC)c2c(=O)[nH]c(-c3ccc(N4CCC(NC(C)=O)C4)cc3)nc2c1` (stereo not drawn) [N-(1-(4-(5,7-Dimethoxy-4-oxo-3,4-dihydroquinazolin-2-yl)phenyl)pyrrolidin-3-yl)acetamide]: the “Inhibition of IL-6 expression” value in the data set with hIL-6 mRNA is reported as “Active”. Besides, the “Inhibition of VCAM-1 expression” value with VCAM-1 mRNA was “Active”.

What is called melting point is the temperature, or range, at which the solid turns liquid.
